Source: US10342799B2, “Compositions and methods for prophylaxis and therapy for Meniere's disease” (priority 2013, dated 2019)

Test system: patients diagnosed with active definite MD (Ménière's vertigo attacks)
Assay: Retrospective and prospective review of active definite Meniere's disease patients treated with lamotrigine (vertigo attacks, DHI, side effects)
Assay type: in vivo, human patients
Description: Population. A retrospective and prospective review was performed on patients who were older than 18 years old, diagnosed with active definite MD at the Dent Dizziness, Balance and Tinnitus Center and treated with lamotrigine. Definite MD is defined as two or more episodes of vertigo that last for ≥20 minutes with documented hearing loss on at least one occasion, tinnitus and/or aural fullness, and other causes excluded. Active MD status requires patients to experience at least three vertigo attacks during the three months prior to treatment.
Clinical data. Data collected included demographic information, history of MD, prior medical treatment, clinical diagnosis, clinical presentation, stage of the disease, and frequency of Ménière's vertigo attacks prior to and after treatment. The staging of MD was based on the four-tone average of the pure-tone thresholds at 0.5, 1, 2 and 3 kHz of the worst audiogram during the six months before treatment. The questionnaires used were the Dizziness Handicap Inventory (DHI) and the Center's Dizziness Questionnaire. Current or past history of anxiety/depression, migraine problems, and use of anti-anxiety medication were also analyzed.
Outcome variable. The primary outcome measure was the reduction of Ménière's vertigo attacks at both three months after lamotrigine initiation (primarily the titration period) and three months after treatment at maintenance dosage. Secondary outcome measures included DHI scores and patient reports of clinical improvement. Data were confirmed by review of physicians' notes, vestibular and audiogram testing results, and supporting data. Means and standard deviations (SDs) were calculated for all continuous variables and proportions for all categorical variables. The primary research questions were whether or not lamotrigine led to a reduction of Ménière's vertigo attacks and whether or not lamotrigine led to improvement in quality of life for MD patients.
Statistical analysis. The overall difference in Meniere's vertigo attacks among 3 months pre-treatment, 3 months of titration, and 3 months of maintenance treatment was evaluated by Friedman's test, which is a nonparametric test for treatment differences in a randomized complete block design. The Wilcoxon signed rank sum test, which is the nonparametric version of a paired sample t-test, was used for the pairwise comparisons of Meniere's vertigo attacks from the three different time periods as well as DHI before and after treatment. Fisher's exact test was used to evaluate whether treatment effectiveness was affected by migraine or anxiety comorbidities. For all of these statistical tests, the tests were two-sided, and the level of significance was set to 0.05. Differences were considered significant if the p-value was less than 0.05.
Lamotrigine titration. All 45 patients began a titration of lamotrigine of 25 mg BID for two weeks to 50 mg BID for two weeks. Final maintenance dosages varied between 25 mg BID and 200 mg BID due to individual patient tolerance and response; 29 patients were on either 100 mg BID or 150 mg BID maintenance dosages (64%). There was one patient who was lost to follow-up. There were four patients who discontinued lamotrigine due to side effects: one experienced stomachaches and diarrhea, one complained of hallucinations, and two developed rashes.

[1] = mean (SD), three months prior to treatment: 12.7 (SD 11.6)
[2] = number of patients, value in brackets

**Q.** Which results are given for `Nc1nnc(-c2cccc(Cl)c2Cl)c(N)n1` [Lamotrigine, 6-(2,3-Dichlorophenyl)-1,2,4-triazine-3,5-diamine]?
**A.** vertigo attack reduction and remission: influence of migraine comorbidity (Fisher's exact test, p=0.414): not affected; vertigo attack reduction and remission: influence of anxiety/depression comorbidity (Fisher's exact test, p=1.000): not affected; patients who reported improvement and had anxiety/depression disorder (among the 38 improved patients): 28 patients; patients who reported improvement and had migraine (among the 38 improved patients): 20 patients; mean post-treatment DHI score (mean (SD), prior treatment DHI 47.6 (SD 19.6)): 28.6 (SD 20.9); mean number of vertigo attacks after three months of maintenance dosage [1]: 1.9 (SD 4.6); mean number of vertigo attacks three months after initiation (primarily the titration period) [1]: 4.5 (SD 6.2); Side effect, MD with migraine (number of patients): 1; Side effect, MD without migraine (number of patients): 3; Side effect, Total (number of patients): 4; Vertigo attack free, MD with migraine (number of patients): 11; Vertigo attack free, MD without migraine (number of patients): 10; Vertigo attack free, Total (number of patients): 21; Vertigo reduced, MD with migraine (number of patients): 9; Vertigo reduced, MD without migraine (number of patients): 8; Vertigo reduced, Total (number of patients): 17; Vertigo unchanged, MD with migraine (number of patients): 1 (1); Vertigo unchanged, MD without migraine (number of patients): 1 (1); Vertigo unchanged, Total (number of patients): 2; Side effect, MD with anxiety [2]: 3; Side effect, MD without anxiety [2]: 1; Vertigo attack free, MD with anxiety [2]: 15; Vertigo attack free, MD without anxiety [2]: 6; Vertigo reduced, MD with anxiety [2]: 13; Vertigo reduced, MD without anxiety [2]: 4; Vertigo unchanged, MD with anxiety [2]: 1 (1); Vertigo unchanged, MD without anxiety [2]: 1 (1); patients with complete resolution of Ménière's vertigo attacks during the three month maintenance period (of 38 improved patients): 21 patients; patients who discontinued lamotrigine due to side effects (of 45 patients): four; patients who discontinued with hallucinations (of 45 patients): one; patients who discontinued with rashes (of 45 patients): two; patients who discontinued with stomachaches and diarrhea (of 45 patients): one; proportion of patients who reported an improvement in Ménière's vertigo attacks (out of all 45 study patients): 84%; patients who reported an improvement in Ménière's vertigo attacks with lamotrigine treatment (out of all 45 study patients, maintenance 25-200 mg BID): 38 patients; post-DHI score less than pre-DHI score, on average (p=0.001): 19 points; vertigo attacks during 3 months of maintenance relative to 3 months of titration (p=0.04): significantly fewer; vertigo attacks during the two treatment periods compared to the 3 months prior to treatment (titration and maintenance periods, p<0.001, p<0.001, Wilcoxon signed rank): significantly fewer
